The values that follow come from patent US10154957B2, “Microneedle device having a peptide therapeutic agent and an amino acid and methods of making and using the same” (3M INNOVATIVE PROPERTIES COMPANY, priority 2011, dated 2018).

The nature of this series: Percent purity of PTHrP analogue (20 mg/mL formulations) in coating on flood-coated arrays stored at 40° C./96% RH (HPLC). The series is classed as physicochemical. The note with it: peptide 20 mg/mL in PBS. On the procedure:
The protein or polypeptide content in the formulation coated on the microneedle arrays was determined using an Agilent 1100 HPLC system (Agilent Technologies, Wilmington, Del.) equipped with a binary pump, well-plated thermostated autosampler, thermostated column compartment, and a diode array UV detector. A Zorbax 300SB-C8 column (Agilent Technologies, Wilmington, Del.) having a 5 μm particle size and 2.1×150 mm inner diameter was used for the separations. The column was maintained at 50° C. The mobile phase consisted of two eluents. Eluent A was 0.1% TFA (trifluoroacetic acid) in water and eluent B was 0.1% TFA in acetonitrile (Spectrum Chemical, New Brunswick, N.J.). A linear gradient from 80/20 to 50/50 (A/B) was applied over 30 minutes. The flow rate was 0.4 mL/minute and the UV detection wavelength was set at 214 nm. The total run time was 34 minutes and the sample injection volume was 15 μL.
A sample formulation containing 20 mg/mL of [Glu^22,25,Leu^23,28,31,Aib^29,Lys^26,30]hPTHrP(1-34)NH2 and 20 mg/mL of L-histidine monohydrochloride (His-HCl) in PBS was prepared. A control formulation was also prepared containing 20 mg/mL of [Glu^22,25,Leu^23,28,31,Aib^29,Lys^26,30]hPTHrP(1-34)NH2 in PBS. […] Microneedle arrays were coated with either the sample or the control formulation. The coating was applied by dropwise addition of 50 μL of the formulation to the portion of the array defined by the octagon shaped pattern of microneedles. The flood coated arrays (both sample and control formulation coated) were dried in an oven at 35° C. for 2 hours followed by 30° C. for 15 hours.
After drying, the coated arrays were placed in a storage chamber that was maintained at 40° C. and 96% relative humidity (RH). The [Glu^22,25,Leu^23,28,31,Aib^29,Lys^26,30]hPTHrP(1-34)NH2 content of the coated arrays was determined following storage in the chamber for 1, 3, and 7 days. The initial [Glu^22,25,Leu^23,28,31,Aib^29,Lys^26,30]hPTHrP(1-34)NH2 content was also determined using freshly coated arrays (both sample and control formulation coated). The arrays used to determine initial content were stored in a refrigerator at about 4° C. and analyzed within one day of being prepared. At the designated time point, an array was taken from the chamber and washed with 0.1 N acetic acid (20 mL) to remove the formulation from the array. The resulting wash solution was analyzed for [Glu^22,25,Leu^23,28,31,Aib^29,Lys^26,30]hPTHrP(1-34)NH2 content using the HPLC method described above. The results were quantified against an external standard of [Glu^22,25,Leu^23,28,31,Aib^29,Lys^26,30]hPTHrP(1-34)NH2. At each time point, the percent purity of [Glu^22,25,Leu^23,28,31,Aib^29,Lys^26,30]hPTHrP(1-34)NH2 in the coating was determined by measuring the peak area for [Glu^22,25,Leu^23,28,31,Aib^29,Lys^26,30]hPTHrP(1-34)NH2 in the selected coating and dividing it by the total peak area measured for all [Glu^22,25,Leu^23,28,31,Aib^29,Lys^26,30]hPTHrP(1-34)NH2 related peaks.
The same procedure as described in Example 9 was used with the exception that the sample formulation contained 20 mg/mL of L-arginine hydrochloride, instead of L-histidine monohydrochloride.

With “[Glu^22,25,Leu^23,28,31,Aib^29,Lys^26,30]hPTHrP(1-34)NH2”, the “Percent Purity of [Glu^22,25, Leu^23,28,31, Aib^29, Lys^26,30]hPTHrP(1-34)NH2” value is recorded as 88.4% (Amino Acid L-Arginine (Arg-HCl 20 mg/mL), Day 1 at 40° C./96% RH); 76.1% (Amino Acid L-Arginine (Arg-HCl 20 mg/mL), Day 3 at 40° C./96% RH); 46.4% (Amino Acid L-Arginine (Arg-HCl 20 mg/mL), Day 7 at 40° C./96% RH); 99.0% (Amino Acid L-Arginine (Arg-HCl 20 mg/mL), Initial); 99.3% (Amino Acid L-Histidine (His-HCl 20 mg/mL), Day 1 at 40° C./96% RH); 98.9% (Amino Acid L-Histidine (His-HCl 20 mg/mL), Day 3 at 40° C./96% RH). Also, the “Percent Purity of [Glu^22,25, Leu^23,28,31, Aib^29, Lys^26,30]hPTHrP(1-34)NH2” value is, setting by setting: (Amino Acid L-Histidine (His-HCl 20 mg/mL), Day 7 at 40° C./96% RH) 97.9%; (Amino Acid L-Histidine (His-HCl 20 mg/mL), Initial) 99.4%; (Amino Acid None (control), Day 1 at 40° C./96% RH) 85.6%; (Amino Acid None (control), Day 3 at 40° C./96% RH) 53.1%; (Amino Acid None (control), Day 7 at 40° C./96% RH) 21.1%; (Amino Acid None (control), Initial) 98.9%.
